Experiments:
11beta-HSD1 enzyme = biological target: T1, 11beta-HSD1 enzyme (Homo sapiens, UniProt P28845); test: SPA (Scintillation Proximity Assay) of in vitro inhibitory activity on 11beta-HSD1, 384-well format; format: biochemical; settings: recombinant 11beta-HSD1 produced in yeast S. cerevisiae; 3H-cortisone, NADPH; cortisol formed; read-out: concentration which inhibits 50% of the activity of 11beta-HSD1 (IC50)
T1 construct: made in house; host or cells: Saccharomyces cerevisiae
Protocol: The compounds according to the invention were the subject of pharmacological assays for determining their inhibitory effect on the 11beta-HSD1 enzyme which is an enzyme involved in lipid metabolism or glucose metabolism.
These assays consisted in measuring the in vitro inhibitory activity of the compounds of the invention by means of an SPA (Scintillation Proximity Assay) in 384-well format. Recombinant 11beta-HSD1 protein was produced in the yeast S. cerevisiae. The reaction was carried out by incubating the enzyme in the presence of ^3H-cortisone and of NADPH, in the absence or presence of an increasing concentration of inhibitor. SPA beads coupled to an anti-mouse antibody, pre-incubated with an anti-cortisol antibody, made it possible to measure the amount of cortisol formed during the course of the reaction.
The inhibitory activity with respect to the 11beta-HSD1 enzyme is given by the concentration which inhibits 50% of the activity of 11beta-HSD1 (IC50).

11βHSD1 in the eyes = biological target: T2, 11βHSD1 in the eyes (Homo sapiens, UniProt P28845); settings: healthy volunteers; after seven days of treatment; cited from earlier work
T2 construct: host or cells: healthy volunteers (in vivo, eye)

11βHSD1 [1] = biological target: T3, 11βHSD1 (Homo sapiens, UniProt P28845); parameters: host or cells: elderly human individuals (in vivo); settings: elderly individuals; cited from earlier work
11βHSD1 [2] = biological target: T3, 11βHSD1; parameters: host or cells: healthy volunteers (in vivo, bone); settings: healthy volunteers; cited from earlier work
11βHSD1 [3] = biological target: T3, 11βHSD1; settings: slim volunteer patients and type 2 diabetics; cited from earlier work

T3 sequence (P28845 whole entry): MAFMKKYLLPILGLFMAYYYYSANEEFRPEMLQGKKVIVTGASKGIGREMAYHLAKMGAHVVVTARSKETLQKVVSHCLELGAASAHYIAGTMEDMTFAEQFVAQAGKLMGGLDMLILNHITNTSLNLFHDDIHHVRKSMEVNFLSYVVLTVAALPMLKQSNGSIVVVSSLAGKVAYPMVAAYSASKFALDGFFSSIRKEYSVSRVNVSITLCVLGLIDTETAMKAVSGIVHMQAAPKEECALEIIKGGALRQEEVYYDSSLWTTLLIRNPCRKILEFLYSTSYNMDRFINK
T1 sequence (P28845 whole entry, species assumed): as the sequence (P28845 whole entry) above
T2 sequence (P28845 whole entry): as above

Structure (SMILES)	IC50 (11beta-HSD1 enzyme) [nM]	IOP (intraocular pressure) reduced by (11βHSD1 in the eyes) [%]	verbal fluidity and verbal memory (11βHSD1 [1])	bone formation markers (11βHSD1 [2])	bone resorption markers (11βHSD1 [2])	insulin sensitivity (11βHSD1 [3])
CS(=O)(=O)N1CCN(c2ccc(OC3CC4CCC(C3)N4C(=O)NC3C4CC5CC3CC(O)(C5)C4)cc2)CC1 (stereo not drawn) [compound 5, exo-3-[4-(4-Methanesulfonylpiperazin-1-yl)phenoxy]-8-azabicyclo-[3.2.1]octane-8-carboxylic acid (trans-5-hydroxyadamantan-2-yl)amide]	10	–	–	–	–	–
CC1(C)[C@@H](OC(=O)CCC(=O)O)CC[C@]2(C)[C@H]3C(=O)C=C4[C@@H]5C[C@@](C)(C(=O)O)CC[C@]5(C)CC[C@@]4(C)[C@]3(C)CC[C@@H]12 [carbenoxolone]	–	18	improves verbal fluidity and verbal memory	without any change	decrease	improves insulin sensitivity
CS(=O)(=O)N1CCN(c2ccc(OCC3CC4CCC(C3)N4C(=O)NC3C4CC5CC3CC(O)(C5)C4)cc2)CC1 (stereo not drawn) [Compound No. 17, endo-3-[4-(4-Methanesulfonylpiperazin-1-yl)phenoxymethyl]-8-azabicyclo-[3.2.1]octane-8-carboxylic acid (trans-5-hydroxyadamantan-2-yl)amide]	4	–	–	–	–	–
